Measurements from patent US20100260791A1, “CHLAMYDIA ANTIGENS” (President and Fellows of Harvard, priority 2007, published 2010).

Tests used:
[1] = test system: C. trachomatis-specific CD8^+ murine T cells; test: IFN-γ ELISA of C. trachomatis-specific CD8+ murine T cells stimulated with peptide-pulsed macrophages; format: cell-based, mouse; conditions: CT242 and CT812 peptides (CD8+ Ag); for IFN-γ Produced −fold: fold-increase of IFN-γ production compared to untreated T-lymphocytes (footnote); for IFN-γ Produced ng: mean (± standard deviation) of duplicate samples
Source text: (§1) A library of cells or viruses containing polynucleotides encoding C. trachomatis polypeptides, polypeptide fragments, or fusion proteins may be screened to determine which of the polypeptides, polypeptide fragments, or fusion proteins encoded by the polynucleotides are immunogenic. This may be accomplished by contacting each member of the library with a second cell (e.g., a macrophage or antigen presenting cell) capable of endocytosing the cell of the C. trachomatis library, and displaying portions of the expressed polypeptide of the library on the surface of the second cell (see, e.g., U.S. Pat. No. 6,008,415). The second cell is then contacted with a C. trachomatis-specific T cell (e.g., a C. trachomatis-specific CD4^+ or CD8^+ T cell) from an organism previously infected with C. trachomatis. The second cell may also be fixed (e.g., using paraformaldehyde) prior to contacting with a C. trachomatis-specific T cell. A C. trachomatis-specific T cell capable of binding a presented portion of the C. trachomatis protein, will result in secretion of cytokines. Cytokine secretion (e.g., secretion of IFN-γ, IL-2, or TNF) may be assayed for as known in the art, for example, using an ELISA assay.
(§2) In particular, murine H2^b bone marrow-derived macrophages (BMMs) were seeded at a density of 1×10^5 cells/well in 96-well plates. Fourteen to sixteen hours later, an aliquot of a frozen C. trachomatis library was thawed. The media was aspirated from the BMMs and replaced with a library aliquot and 60 μL of fresh RP-10 media. After 1 hour at 37° C., the BMMs were washed with PBS, 100 μL of RP-10 media added, and the cells incubated an additional hour at 37° C. The BMMs were then fixed with 1% paraformaldehyde for 15 minutes and washed extensively with PBS. […] T cells (either C. trachomatis-specific CD4^+ or CD8^+ murine T cells; 1×10^5) were added to each well in 200 μL of RP-10 media. Plates were incubated for 18-24 hours at 37° C. and the amount of IFN-γ in the supernatant of each well determined through the use of an IFN-γ ELISA assay (Endogen).
(§3) Another way to identify an antigenic peptide is to pulse the polypeptide, polypeptide fragment, or fusion protein onto macrophages and screen for their ability to activate C. trachomatis-specific CD4^+ or CD8^+ murine T cells (as described above). Peptides used in such assays can be synthesized using methods known in the art. A polypeptide, polypeptide fragment, or fusion protein that is capable of activating the C. trachomatis-specific CD4^+ or CD8^+ murine T cells is deemed immunogenic.
Pools of activated CD8^+ murine T cells for use in the identification of immunogenic C. trachomatis polypeptides, polypeptide fragments, and fusion proteins may be obtained using methods known in the art. Typically, in screening for antigens to pathogenic organisms, CD8^+ T cells are prepared from a mammal previously infected with the pathogenic organism. This preparation contains CD8^+ T cells specific for antigens from the pathogen.
C. trachomatis-specific CD8^+ T cells were harvested from mice as follows. A C57BL/6 mouse was injected intraperitoneally with 10^7 infection-forming units of C. trachomatis. Fourteen days later the mouse was euthanized and the spleen was harvested. The spleen was mashed through a 70 μm screen to create a single cell solution of splenocytes. The CD8^+ T cells were isolated from the splenocytes using anti-CD8 antibodies bound to MACS™ magnetic beads and separation protocols standard in the art (see, for e.g., MACS™ technology available from Miltenyi Biotec Inc., Auburn, Calif.). The isolated CD8^+ cells were added to macrophages of the same haplotype (H2^b), which were infected with C. trachomatis 18 hours prior in a 24-well dish. Irradiated splenocytes from a naïve mouse (C57BL/6) were added as feeder cells in media containing IL-2. The cells were incubated for 10 days during which the C. trachomatis-specific CD8^+ T cells were stimulated by the infected macrophages and replicated. […]

[2] = test system: C. trachomatis-specific CD4^+ murine T cells; test: IFN-γ ELISA of C. trachomatis-specific CD4+ murine T cells stimulated with peptide-pulsed macrophages; format: cell-based, mouse; conditions: CT144 peptides (CD4+ Ag); for IFN-γ Produced −fold: fold-increase of IFN-γ production compared to untreated T-lymphocytes (footnote); for IFN-γ Produced ng: mean (± standard deviation) of duplicate samples
Source text: as §1, §2, §3
Activated CD4^+ murine T cells for use in the identification of immunogenic C. trachomatis polypeptides, polypeptide fragments, and fusion proteins may be obtained using methods known in the art. Splenocytes from mice were isolated 21 days after infection with C. trachomatis serovar L2 and cultured with irradiated (2,000 rad) bone marrow-derived dendritic cells, UV-inactivated C. trachomatis serovar L2, and naïve syngeneic splenocytes in RP-10 (RPMI medium 1640 supplemented with 10% fetal calf serum, L-glutamine, HEPES, 50 μM 2-β-mercaptoethanol, 50 units/ml penicillin, and 50 μg/ml streptomycin) with a-methyl mannoside and 5% supernatant from Con A-stimulated rat spleen cells. CD8^+ T cells were depleted from the culture by using Dynabeads Mouse CD8 (Invitrogen, Carlsbad, Calif.). The CD4^+ T cells were restimulated every 7 days with C. trachomatis-pulsed bone marrow-derived dendritic cells. Once a C. trachomatis-specific CD4^+ cell line was established, a CD4^+ T cell clone was isolated by limiting dilution.

Sequence | IFN-γ Produced −fold [1] | IFN-γ Produced ng [1] | IFN-γ Produced −fold [2] | IFN-γ Produced ng [2]
AALYSTEDL [CT812 peptide tested with CD8+ T cells] | 0.5 fold | 0.02 (±0.02) ng |  | 
AKLECTQDLIAQGKLIVTNP [CT144 peptide tested with CD4+ T cells] |  |  | 35 fold | 1.4 (±0.3) ng
AQGKLIVTNPKSDISFGGRV (listed as Chlamydia trachomatis) [amino acids 67-86 of the CT144 polypeptide] |  |  | 925 fold | 37.0 (±1.8) ng
FQEKDADTL [CT812 peptide tested with CD8+ T cells] | 2.0 fold | 0.09 (±0.03) ng |  | 
FSVTNPVVF (listed as Chlamydia trachomatis) [amino acids 103-111 of the CT812 polypeptide] | 65 fold | 2.6 (±0.3) ng |  | 
FTSSNLDSP [CT812 peptide tested with CD8+ T cells] | 1.0 fold | 0.04 (±0.01) ng |  | 
GQSVNELVY [CT812 peptide tested with CD8+ T cells] | 0.8 fold | 0.03 (±0.02) ng |  | 
KSDISFGGRVNLADNTVNYS (listed as Chlamydia trachomatis) [amino acids 77-96 of the CT144 polypeptide] |  |  | 40 fold | 1.6 (±0.4) ng
LEFASCSSL [CT812 peptide tested with CD8+ T cells] | 1.5 fold | 0.06 (±0.01) ng |  | 
LNQSNLKRM (listed as Chlamydia trachomatis) [amino acids 112-120 of the CT242 polypeptide] | 160 fold | 6.5 (±2.4) ng |  | 
NVTQDLTSSTAKLECTQDLI [CT144 peptide tested with CD4+ T cells] |  |  | 35 fold | 1.4 (±0.3) ng
QSVNELVYV [CT812 peptide tested with CD8+ T cells] | 0.3 fold | 0.01 (±0.01) ng |  | 
SNLKRMQKI [CT242 peptide tested with CD8+ T cells] | 10 fold | 0.40 (±0.07) ng |  | 
SQAEGQYRL [CT812 peptide tested with CD8+ T cells] | 0.8 fold | 0.03 (±0.3) ng |  | 
YQILNQSNL (listed as Chlamydia trachomatis) [amino acids 109-117 of the CT242 polypeptide] | >5,750 fold | >230 ng |  | 
